Data published in patent US20140163026A1, “8-ETHYL-6-(ARYL)PYRIDO[2,3-D]PYRIMIDIN-7(8H)-ONES FOR THE TREATMENT OF NERVOUS SYSTEM DISORDERS AND CANCER” (Afraxis Holdings, Inc., priority 2011, published 2014).

Columns and labels:
Type in all cases: biochemical
PAK1 = PAK1 (Homo sapiens, UniProt Q13153); experiment: In vitro PAK inhibition assay (SelectScreen, Ser/Thr 19 peptide)
Outline: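 Ten-point, 3-fold compound series at 1% final DMSO were incubated with enzyme, Ser/Thr 19 peptide and ATP for 60 min at room temperature. Buffer was HEPES pH 7.5 (50 mM) with 10 mM MgCl2, 1 mM EGTA, 0.01% BRIJ-35. A 60 min development step preceded the fluorescence read converted to % phosphorylation.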

PAK2 (PAK65) = PAK2 (PAK65) (Homo sapiens, UniProt Q13177); experiment: In vitro PAK inhibition assay (SelectScreen, Ser/Thr 20 peptide)
Outline: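 Ten-point threefold compound dilutions (1% DMSO) were incubated with PAK2 (0.29-6 ng) and Ser/Thr 20 substrate (2 μM) for 60 min at room temperature in HEPES pH 7.5 buffer with MgCl2, EGTA and BRIJ-35.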

PAK3 = PAK3 (Homo sapiens, UniProt O75914); experiment: as above
Outline: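 Fluorescence-based development format: after a 60-min room-temperature kinase reaction and 60-min protease development, percent phosphorylation of Ser/Thr 20 peptide calculated via phosphopeptide controls. Buffer 50 mM HEPES pH 7.5, 10 mM MgCl2, 1 mM EGTA, 0.01% BRIJ-35; compounds at 1% DMSO, 10-point 3-fold dilution series.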

PAK4 = PAK4 (Homo sapiens, UniProt O96013); experiment: as above
Outline: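 Ten-point, 3-fold compound series (1% DMSO) incubated 1 h at room temperature with PAK4 (0.1-0.75 ng) and 2 μM Ser/Thr 20 peptide, HEPES pH 7.5 buffer with MgCl2, EGTA, BRIJ-35. Development reagent cleaves non-phosphorylated peptide; fluorescence emission ratio gives % phosphorylation, fitted sigmoidally for IC50.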

Chain of PAK1 (Q13153 whole entry): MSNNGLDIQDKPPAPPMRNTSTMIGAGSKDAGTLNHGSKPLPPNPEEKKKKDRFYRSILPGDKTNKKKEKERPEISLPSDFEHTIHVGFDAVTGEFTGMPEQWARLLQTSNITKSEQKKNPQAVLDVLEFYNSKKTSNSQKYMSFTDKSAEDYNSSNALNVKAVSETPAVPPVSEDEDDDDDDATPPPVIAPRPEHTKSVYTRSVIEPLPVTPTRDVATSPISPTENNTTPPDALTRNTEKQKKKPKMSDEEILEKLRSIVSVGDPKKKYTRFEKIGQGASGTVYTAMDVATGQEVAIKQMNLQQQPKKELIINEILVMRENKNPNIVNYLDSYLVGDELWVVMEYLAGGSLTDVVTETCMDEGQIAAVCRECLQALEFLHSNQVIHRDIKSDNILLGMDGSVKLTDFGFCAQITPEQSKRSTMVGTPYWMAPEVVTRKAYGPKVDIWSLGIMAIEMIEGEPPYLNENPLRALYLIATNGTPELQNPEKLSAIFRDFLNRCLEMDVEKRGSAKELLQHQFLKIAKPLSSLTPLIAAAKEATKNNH
Chain of PAK4 (O96013 whole entry): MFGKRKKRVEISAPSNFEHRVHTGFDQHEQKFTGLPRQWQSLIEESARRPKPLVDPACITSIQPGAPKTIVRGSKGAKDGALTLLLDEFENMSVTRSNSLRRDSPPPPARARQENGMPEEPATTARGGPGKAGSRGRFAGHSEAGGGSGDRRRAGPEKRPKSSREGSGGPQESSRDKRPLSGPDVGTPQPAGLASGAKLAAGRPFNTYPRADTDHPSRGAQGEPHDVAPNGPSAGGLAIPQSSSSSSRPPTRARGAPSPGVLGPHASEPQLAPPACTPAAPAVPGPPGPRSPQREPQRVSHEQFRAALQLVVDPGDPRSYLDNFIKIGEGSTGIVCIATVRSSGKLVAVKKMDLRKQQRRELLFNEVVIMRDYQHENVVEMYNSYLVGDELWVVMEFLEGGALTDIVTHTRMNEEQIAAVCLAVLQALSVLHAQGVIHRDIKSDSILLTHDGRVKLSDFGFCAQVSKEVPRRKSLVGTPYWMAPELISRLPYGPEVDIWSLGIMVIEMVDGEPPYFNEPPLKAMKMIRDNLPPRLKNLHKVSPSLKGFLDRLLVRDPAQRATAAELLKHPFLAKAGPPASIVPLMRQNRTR
Chain of PAK2 (PAK65) (Q13177 whole entry): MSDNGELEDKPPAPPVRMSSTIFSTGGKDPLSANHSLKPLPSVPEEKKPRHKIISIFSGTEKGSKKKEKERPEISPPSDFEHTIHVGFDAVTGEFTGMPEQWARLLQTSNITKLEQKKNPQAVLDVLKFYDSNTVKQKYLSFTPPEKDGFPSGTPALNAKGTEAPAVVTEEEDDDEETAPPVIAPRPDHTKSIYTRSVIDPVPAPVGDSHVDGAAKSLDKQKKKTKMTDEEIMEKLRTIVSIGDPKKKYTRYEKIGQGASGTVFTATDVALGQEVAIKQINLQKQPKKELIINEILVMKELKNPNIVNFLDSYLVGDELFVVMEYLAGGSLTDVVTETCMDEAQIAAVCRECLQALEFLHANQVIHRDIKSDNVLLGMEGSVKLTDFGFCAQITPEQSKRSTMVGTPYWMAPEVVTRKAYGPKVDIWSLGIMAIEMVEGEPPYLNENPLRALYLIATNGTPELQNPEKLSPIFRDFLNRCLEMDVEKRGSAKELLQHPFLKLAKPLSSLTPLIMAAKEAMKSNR
Chain of PAK3 (O75914 whole entry): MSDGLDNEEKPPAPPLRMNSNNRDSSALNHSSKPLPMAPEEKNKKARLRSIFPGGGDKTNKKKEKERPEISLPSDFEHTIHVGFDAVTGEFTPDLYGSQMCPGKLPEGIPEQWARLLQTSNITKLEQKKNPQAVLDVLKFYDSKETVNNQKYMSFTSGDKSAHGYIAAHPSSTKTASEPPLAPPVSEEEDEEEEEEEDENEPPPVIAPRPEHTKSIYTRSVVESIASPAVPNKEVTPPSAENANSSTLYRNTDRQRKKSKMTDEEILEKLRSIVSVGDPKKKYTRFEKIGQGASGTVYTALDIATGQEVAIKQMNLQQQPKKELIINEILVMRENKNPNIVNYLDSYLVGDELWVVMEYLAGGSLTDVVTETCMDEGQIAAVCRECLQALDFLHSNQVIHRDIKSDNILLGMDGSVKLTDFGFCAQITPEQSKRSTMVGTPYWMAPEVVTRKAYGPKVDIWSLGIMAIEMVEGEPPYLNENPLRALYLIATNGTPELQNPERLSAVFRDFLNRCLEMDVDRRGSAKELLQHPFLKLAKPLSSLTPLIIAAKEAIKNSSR

Row | Structure (SMILES) | IC50 (PAK1) [nM] | IC50 (PAK2 (PAK65)) [nM] | IC50 (PAK3) [nM] | IC50 (PAK4) [nM]
1 | CCN1CCN(c2ccc(Nc3ncc4cc(-c5ccc(-c6cncnc6)cc5Cl)c(=O)n(CC)c4n3)cc2)CC1 | < 50 | < 50 | < 50 | 500 to 5000
2 | CCn1c(=O)c(-c2ccc(-c3ccc(C)nc3)cc2Cl)cc2cnc(Nc3ccc(C4CCNCC4)cc3)nc21 | < 50 | < 50 | 50 to 500 | 500 to 5000
3 | CCn1c(=O)c(-c2ccc(-c3noc(C)n3)cc2Cl)cc2cnc(Nc3ccc(CCN4CCOCC4)cc3)nc21 | 50 to 500 | 50 to 500 | 50 to 500 | ≥ 5000
4 | Cc1ncccc1-c1ccc(-c2cc3cnc(Nc4ccc(C5CCN(C)CC5)cc4)nc3n(C)c2=O)c(Cl)c1 | < 50 | < 50 | 50 to 500 | ≥ 5000
5 | CCn1c(=O)c(-c2ccc(-c3cncnc3)cc2Cl)cc2cnc(Nc3ccc(C4CNCCO4)cc3)nc21 (stereo not drawn) | < 50 | < 50 | < 50 | 500 to 5000
6 | CCn1c(=O)c(-c2ccc(-c3ccoc3)cc2)cc2cnc(Nc3ccc(N4CCN(C)CC4)cc3)nc21 | 50 to 500 | > 5000 | > 5000 | ≥ 5000
7 | CCn1c(=O)c(-c2ccc(-c3noc(C(F)(F)F)n3)cc2Cl)cc2cnc(Nc3ccc(N4CCN(C(C)C)CC4)cc3)nc21 | < 50 | < 50 | < 50 | ≥ 5000
8 | CCn1c(=O)c(-c2ccc(-c3cccnc3C)cc2Cl)cc2cnc(Nc3ccc(CCN(C)C)cc3)nc21 | < 50 | < 50 | 50 to 500 | ≥ 5000
9 | CC(=O)Nc1ncccc1-c1ccc(Cl)c(-c2cc3cnc(Nc4ccc(C5CCN(C)CC5)cc4)nc3n(C)c2=O)c1 | 50 to 500 | 50 to 500 | 500 to 5000 | ≥ 5000
10 | CNC(=O)c1cc(-c2ccc(-c3cc4cnc(Nc5ccc(CCN(C)C)cc5)nc4n(C)c3=O)c(Cl)c2)ccn1 | 50 to 500 | 50 to 500 | 500 to 5000 | ≥ 5000
11 | CCn1c(=O)c(-c2ccc(-c3ccc(C)nc3F)cc2Cl)cc2cnc(Nc3ccc(C4CCNCC4)c(F)c3)nc21 | 50 to 500 | 50 to 500 | 50 to 500 | 500 to 5000
12 | CC(=O)Nc1cc(-c2cc3cnc(Nc4ccc(CCN(C)C)cc4)nc3n(C)c2=O)c(Cl)cc1-c1cccnc1 | 50 to 500 | 50 to 500 | 50 to 500 | ≥ 5000
13 | CCn1c(=O)c(-c2ccc(-c3cncnc3)cc2Cl)cc2cnc(Nc3ccc(N4CCN(C(C)C)CC4)c(F)c3)nc21 | < 50 | < 50 | < 50 | ≥ 5000
14 | CCn1c(=O)c(-c2ccc(-c3noc(C)n3)s2)cc2cnc(Nc3ccc(N4CCN(C)CC4)cc3)nc21 | > 5000 | > 5000 | > 5000 | ≥ 5000
15 | CCn1c(=O)c(-c2ccc(-c3cncnc3)cc2)cc2cnc(Nc3ccc(N4CCN(C)CC4)cc3)nc21 | 50 to 500 | 50 to 500 | 500 to 5000 | ≥ 5000
16 | CC(=O)Nc1ccnc(-c2ccc(Cl)c(-c3cc4cnc(Nc5ccc(C6CCN(C)CC6)cc5)nc4n(C)c3=O)c2)n1 | > 5000 | > 5000 | > 5000 | ≥ 5000
17 | CN1CCC(c2ccc(Nc3ncc4cc(-c5cc(F)c(-c6cccnc6F)cc5Cl)c(=O)n(C)c4n3)cc2)CC1 | < 50 | < 50 | 50 to 500 | ≥ 5000
18 | Cc1ncc(-c2ccc(-c3cc4cnc(Nc5ccc(C6CCN(C)CC6)cc5)nc4n(C)c3=O)c(Cl)c2)s1 | < 50 | < 50 | 50 to 500 | ≥ 5000

Row | Structure (SMILES) | IC50 (PAK1) [nM] | IC50 (PAK2 (PAK65)) [nM] | IC50 (PAK3) [nM] | IC50 (PAK4) [nM]
19 | CCN1CCC(c2ccc(Nc3ncc4cc(-c5ccc(-c6cccnc6)cc5Cl)c(=O)n(CC)c4n3)cc2)CC1 | < 50 | < 50 | < 50 | 500 to 5000
20 | CCN1CCC(c2ccc(Nc3ncc4cc(-c5ccc(-c6ccc(C)nc6)cc5Cl)c(=O)n(CC)c4n3)cc2F)CC1 | < 50 | < 50 | 50 to 500 | 500 to 5000
21 | CCn1c(=O)c(-c2ccc(-c3cnn(C)c3)cc2Cl)cc2cnc(Nc3ccc(N4CCN(C)CC4)cc3)nc21 | < 50 | < 50 | 50 to 500 | ≥ 5000
22 | CCN1CCC(c2ccc(Nc3ncc4cc(-c5ccc(-c6noc(C)n6)cc5Cl)c(=O)n(C)c4n3)cc2)CC1 | < 50 | < 50 | < 50 | ≥ 5000
23 | CCn1c(=O)c(-c2ccc(-c3cccnc3F)cc2Cl)cc2cnc(Nc3ccc(CCN4CCCC4)cc3)nc21 | < 50 | < 50 | < 50 | 50 to 500
24 | Cc1nc(-c2ccc(-c3cc4cnc(Nc5ccc(C6CCN(C)CC6)cc5)nc4n(C)c3=O)c(C)c2)no1 | < 50 | < 50 | < 50 | ≥ 5000
25 | CCn1c(=O)c(-c2ccc(-c3ccnc(C)c3)cc2Cl)cc2cnc(Nc3ccc(C4CCN(C)CC4)cc3)nc21 | > 5000 | < 50 | < 50 | 500 to 5000
26 | CCn1c(=O)c(-c2ccc(-c3nnn[nH]3)cc2Cl)cc2cnc(Nc3ccc(N4CCN(C)CC4)cc3)nc21 | > 5000 | > 5000 | > 5000 | ≥ 5000
27 | CCn1c(=O)c(-c2ccc(-c3cncs3)cc2Cl)cc2cnc(Nc3ccc(N4CCNCC4)c(F)c3)nc21 | < 50 | < 50 | < 50 | 500 to 5000
28 | CCn1c(=O)c(-c2ccc(-c3cncnc3)cc2Cl)cc2cnc(Nc3ccc(N4CCN(C)CC4)c(F)c3)nc21 | < 50 | < 50 | < 50 | ≥ 5000
29 | CCn1c(=O)c(-c2ccc(-c3noc(C)n3)cc2Cl)cc2cnc(Nc3ccc(N4CCNCC4)c(F)c3)nc21 | < 50 | < 50 | < 50 | 50 to 500
30 | CCn1c(=O)c(-c2ccc(-c3cccnc3F)cc2Cl)cc2cnc(Nc3ccc(CCN4CCOCC4)cc3)nc21 | 50 to 500 | 50 to 500 | 50 to 500 | ≥ 5000
31 | CCn1c(=O)c(-c2ccc(-c3cnn(C)c3)cc2)cc2cnc(Nc3ccc(N4CCN(C)CC4)cc3)nc21 | 50 to 500 | 50 to 500 | 500 to 5000 | ≥ 5000
32 | CCn1c(=O)c(-c2ccc(-c3cccnc3C)cn2)cc2cnc(Nc3ccc(C4CCN(C)CC4)cc3)nc21 | > 5000 | > 5000 | > 5000 | ≥ 5000
33 | CCn1c(=O)c(-c2ccc(-c3cncs3)cc2Cl)cc2cnc(Nc3ccc(N4CCNCC4)cc3)nc21 | < 50 | < 50 | < 50 | 500 to 5000
34 | CN1CCC(c2ccc(Nc3ncc4cc(-c5cc(-c6cnccn6)ccc5Cl)c(=O)n(C)c4n3)cc2)CC1 | 50 to 500 | 500 to 5000 | 50 to 500 | ≥ 5000
35 | CCn1c(=O)c(-c2ccc(-c3cncnc3)cc2Cl)cc2cnc(Nc3ccc(N4CCNCC4)cc3)nc21 | < 50 | < 50 | < 50 | 500 to 5000
36 | CCn1c(=O)c(-c2ccc(-c3cncnc3)cc2Cl)cc2cnc(Nc3ccc(C4CN(C)CCO4)cc3)nc21 (stereo not drawn) | < 50 | < 50 | < 50 | ≥ 5000
